Consider 1 molecule from patent publication US20020150621A1, “Lipid-protein-sugar particles for drug delivery” (priority 2000, published 2002).

Where two headings read alike, the source gives them in different places.

For data set [1] the following is noted: adult rats; Kohane et al. 1998; cited from earlier work.
Data set [2] can be described thus: Systemic distribution/toxicity after sciatic injection (contralateral thermal latency, deaths). The conditions noted are these: 1.5 ml of 0.5% bupivacaine (7.5 mg), n=6. The format is in vivo, rat. As for the experimental part: (§1) Prior to nerve block injections, rats were anesthetized briefly (<2 minutes) with halothane. […] A 20G needle was introduced postero-medial to the greater trochanter, pointing in an anteromedial direction (Thalhammer et al. “Neurologic evaluation of the rat during sciatic nerve block with lidocaine” Anesthesiology 82:1013-1025, 1995; incorporated herein by reference). Once bone was contacted, the needle was withdrawn 1 mm and the particle-containing solution was injected. The left leg was always used for blocks; the right served as control.
Nociceptive block was assessed by a modified hotplate test (Masters et al. “Prolonged regional nerve blockade by controlled release of local anesthetic from a biodegradable polymer matrix” Anesthesiology 79:1-7, 1993; incorporated herein by reference). Hind paws were exposed in sequence (left then right) to a hot plate at 56° C. (Model 39D Hot Plate Analgesia Meter, IITC Inc., Woodland Hills, Calif.), and the time (latency) until paw withdrawal was measured by a stopwatch. Thermal latency is a measure of the intensity of analgesia. If the paw remained in contact for 12 seconds, it was removed by the experimenter to avoid injury to the animal or the development of hyperalgesia. This test was repeated three times for each rat at every time-point.

Data set [3] can be described thus: Median lethal dose of bupivacaine (literature). The conditions noted are these: in a 350 g rat. In kind it is in vivo. As to the method: Encapsulation improved the safety and efficacy of bupivacaine. […] For this experiment larger rats (approx. 410 g) were used than those used in the remainder of the study, in order to avoid animal death (the median lethal dose of bupivacaine in adult rats is 30±5 mg/kg (Kohane et al. “Sciatic nerve blockade in infant, adolescent, and adult rats: a comparison of ropivacaine and bupivacaine” Anesthesiology 89:1199-1208, 1998; incorporated herein by reference), or 10.5 mg in a 350 g rat). […] It was not possible to directly compare the efficacy of bupivacaine solution and 50% bupivacaine microspheres, since the dose of bupivacaine contained in 75 mg of those microspheres ([…]) is approximately three times the median lethal dose of the unencapsulated drug (Kohane et al. “Sciatic nerve blockade in infant, adolescent, and adult rats: a comparison of ropivacaine and bupivacaine” Anesthesiology 89:1199-1208, 1998). Nevertheless, it is obvious that the microspheres increased the safety of bupivacaine.

The test system of the next data set is sciatic nerve. In words: Sciatic nerve block, thermal nociception (modified hotplate test). The format is in vivo, rat. The conditions noted are these: 1.5 ml of 0.5% bupivacaine (7.5 mg), n=6, rats approx. 410 g. As to the method:
as §1
The effectiveness of block was measured at various time points, applying the methods of Thalhammer et al. (Thalhammer et al. “Neurologic evaluation of the rat during sciatic nerve block with lidocaine” Anesthesiology 82:1013-1025, 1995; […]; incorporated herein by reference).
Nociceptive block was assessed by a modified hotplate test (Masters et al. “Prolonged regional nerve blockade by controlled release of local anesthetic from a biodegradable polymer matrix” Anesthesiology 79:1-7, 1993; incorporated herein by reference). Hind paws were exposed in sequence (left then right) to a hot plate at 56° C. (Model 39D Hot Plate Analgesia Meter, IITC Inc., Woodland Hills, Calif.), and the time (latency) until paw withdrawal was measured by a stopwatch. Thermal latency is a measure of the intensity of analgesia. […]

As for `CCCCN1CCCCC1C(=O)Nc1c(C)cccc1C` (stereo not shown) [bupivacaine], the median lethal dose in data set [1] is 30 ± 5 mg/kg; in data set [3], 10.5 mg. Also, the “rats with severe signs of systemic toxicity (thermal latency=12 seconds in the uninjected leg)” value in data set [2] was “one of those rats”. This molecule also displayed a duration of block in the data set with sciatic nerve of 166 ± 55 min.
